Results from patent US11453695B2, “Nucleoside analogues and methods of use thereof” (priority 2016, dated 2022).

Assays:
[1] = Cell toxicity in the HBV assay; assay type: cell-based; conditions: human, HepG-2 cells
HBV/ayW1 = experiment: Antiviral effect against HBV in HepG-2 cells; assay type: cell-based; conditions: Hepatitis B virus, HepG2; HBV/ayW1 in HepG-2 cells

Structure (SMILES): COc1nc(Cl)nc2c1ncn2[C@@H]1O[C@H](COP(=O)(N[C@@H](C)C(=O)OC(C)C)Oc2ccccc2)C(C)(Cc2nnn[nH]2)[C@H]1F (stereo partly drawn) [LCB-2147]
- CC50 [1]: > 100 µM
- EC50 (HBV/ayW1): 4 µM
- EC90 (HBV/ayW1): 16 µM
